This assay concerns postmenopausal women. As to the kind of experiment: Self-assessment questionnaire (subjective vaginal health questionnaire) in postmenopausal women taking the estrogen agonist/antagonist. The class given is in vivo, human. The following applies: self-reported by postmenopausal women taking the compound. The procedure:
The subject self-assessment of vaginal health is performed with a subjective vaginal health questionnaire. Typically, the questionnaire is performed in private and the results kept confidential. The questionnaire may include an envelope that is specially encoded to later identify the treatment that the subject is undergoing. An additional question may be added in subsequent questionnaires following administration of the baseline questionnaire, which question would ask: “Have you had any positive or negative vaginal changes since you have been taking the study medication?” This question may be coupled to a multiple-point ratings scale ranging from “mostly positive changes,” to “moderately positive changes,” to “mildly positive changes,” to “no changes,” to “mildly negative changes,” to “moderately negative changes,” to “mostly negative changes.”

SMILES strings stand for the structures.

As for `O=C(O)C(O)C(O)C(=O)O.Oc1ccc2c(c1)CC[C@H](c1ccccc1)[C@@H]2c1ccc(OCCN2CCCC2)cc1` [(−)-cis-6-phenyl-5-[4-(2-pyrrolidin-1-yl-ethoxy)-phenyl]-5,6,7,8-tetrahydro-naphthalene-2-ol, D-tartrate salt], the “frequency of sexual intercourse” value is “increased frequency”, the intensity of orgasms result was “increased intensity” and the number of orgasms entry is given as “increased number”.
